Reference: publication PMC10174618, “Monoterpenoid aryl hydrocarbon receptor allosteric antagonists protect against ultraviolet skin damage in female mice” (Nature Communications, 2023)

Tests used:
[1] = target: T1, Tyrosine kinase 2 TK2 (JH2 domain pseudokinase) (Homo sapiens, UniProt P29597); experiment: KINOMEscan competition binding, single concentration […]; details: read-out: % of control at 100 μM
T1 construct: gene TYK2; JH2 domain pseudokinase

[2] = target: EGFR(L747-S752del, P753S) (Homo sapiens, UniProt P00533, DEL747-752/P753S); experiment: biochemical; design: KINOMEscan scanMAX active site-directed competition binding assay, percent of control, 468 kinases; details: competition binding, percent of control
Procedure, shortened: (§1)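 Single-concentration screen (100 μM S-carvone) in a competition binding panel of 468 human kinases (KINOMEscan scanMAX); results given as percent of control, hit cutoff 35%.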

[3] = target: T2, RSK3(Kin.Dom.1-N-terminal) (Homo sapiens, UniProt Q15349); experiment: biochemical; design: KINOMEscan scanMAX active site-directed competition binding assay, percent of control, 468 kinases; details: competition binding, percent of control
T2 construct: gene RPS6KA2; Kin.Dom.1-N-terminal
Procedure, shortened: as §1

WNK1 = WNK1 (Homo sapiens, UniProt Q9H4A3); experiment: biochemical; design: KINOMEscan scanMAX active site-directed competition binding assay, percent of control, 468 kinases; details: competition binding, percent of control
Procedure, shortened: as §1

TAOK1 = TAOK1 (Homo sapiens, UniProt Q7L7X3); experiment: biochemical; design: KINOMEscan scanMAX active site-directed competition binding assay, percent of control, 468 kinases; details: competition binding, percent of control
Procedure, shortened: as §1

PIM1 = PIM1 (Homo sapiens, UniProt P11309); experiment: biochemical; design: KINOMEscan scanMAX active site-directed competition binding assay, percent of control, 468 kinases; details: competition binding, percent of control
Procedure, shortened: as §1

[4] = target: T3, ABL1(H396P)-nonphosphorylated (Homo sapiens, UniProt P00519, H396P); experiment: biochemical; design: KINOMEscan scanMAX active site-directed competition binding assay, percent of control, 468 kinases; details: competition binding, percent of control
T3 construct: nonphosphorylated
Procedure, shortened: as §1

PAK6 = PAK6 (Homo sapiens, UniProt Q9NQU5); experiment: biochemical; design: KINOMEscan scanMAX active site-directed competition binding assay, percent of control, 468 kinases; details: competition binding, percent of control
Procedure, shortened: as §1

CAMK1B = target: T4, CAMK1B (Homo sapiens, UniProt Q6P2M8); experiment: biochemical; design: KINOMEscan scanMAX active site-directed competition binding assay, percent of control, 468 kinases; details: competition binding, percent of control
T4 construct: gene PNCK
Procedure, shortened: as §1

HIPK2 = HIPK2 (Homo sapiens, UniProt Q9H2X6); experiment: biochemical; design: KINOMEscan scanMAX active site-directed competition binding assay, percent of control, 468 kinases; details: competition binding, percent of control
Procedure, shortened: as §1

EGFR(L858R) = EGFR(L858R) (Homo sapiens, UniProt P00533, L858R); experiment: biochemical; design: KINOMEscan scanMAX active site-directed competition binding assay, percent of control, 468 kinases; details: competition binding, percent of control
Procedure, shortened: as §1

T2 sequence (Q15349 whole entry): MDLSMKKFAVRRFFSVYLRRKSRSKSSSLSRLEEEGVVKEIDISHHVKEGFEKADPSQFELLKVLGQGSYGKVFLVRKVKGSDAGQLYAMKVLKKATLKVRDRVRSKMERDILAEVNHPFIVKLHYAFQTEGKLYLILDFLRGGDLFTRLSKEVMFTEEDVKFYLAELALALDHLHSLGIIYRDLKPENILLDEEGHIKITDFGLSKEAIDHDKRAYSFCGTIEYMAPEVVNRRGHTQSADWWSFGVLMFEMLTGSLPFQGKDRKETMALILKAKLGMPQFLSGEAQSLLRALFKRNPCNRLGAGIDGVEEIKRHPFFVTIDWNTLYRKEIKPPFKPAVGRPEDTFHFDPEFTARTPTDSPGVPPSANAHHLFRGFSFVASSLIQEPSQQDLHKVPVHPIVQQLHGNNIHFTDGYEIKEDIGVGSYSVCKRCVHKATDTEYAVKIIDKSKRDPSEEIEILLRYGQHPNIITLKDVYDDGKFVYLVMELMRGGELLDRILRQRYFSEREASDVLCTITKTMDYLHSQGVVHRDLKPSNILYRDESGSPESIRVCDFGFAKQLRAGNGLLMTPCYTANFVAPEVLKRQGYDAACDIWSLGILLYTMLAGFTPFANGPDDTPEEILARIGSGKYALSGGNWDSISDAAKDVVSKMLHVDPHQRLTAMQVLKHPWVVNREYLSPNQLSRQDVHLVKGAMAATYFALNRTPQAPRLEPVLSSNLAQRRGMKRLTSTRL
Chain of TAOK1 (Q7L7X3 whole entry): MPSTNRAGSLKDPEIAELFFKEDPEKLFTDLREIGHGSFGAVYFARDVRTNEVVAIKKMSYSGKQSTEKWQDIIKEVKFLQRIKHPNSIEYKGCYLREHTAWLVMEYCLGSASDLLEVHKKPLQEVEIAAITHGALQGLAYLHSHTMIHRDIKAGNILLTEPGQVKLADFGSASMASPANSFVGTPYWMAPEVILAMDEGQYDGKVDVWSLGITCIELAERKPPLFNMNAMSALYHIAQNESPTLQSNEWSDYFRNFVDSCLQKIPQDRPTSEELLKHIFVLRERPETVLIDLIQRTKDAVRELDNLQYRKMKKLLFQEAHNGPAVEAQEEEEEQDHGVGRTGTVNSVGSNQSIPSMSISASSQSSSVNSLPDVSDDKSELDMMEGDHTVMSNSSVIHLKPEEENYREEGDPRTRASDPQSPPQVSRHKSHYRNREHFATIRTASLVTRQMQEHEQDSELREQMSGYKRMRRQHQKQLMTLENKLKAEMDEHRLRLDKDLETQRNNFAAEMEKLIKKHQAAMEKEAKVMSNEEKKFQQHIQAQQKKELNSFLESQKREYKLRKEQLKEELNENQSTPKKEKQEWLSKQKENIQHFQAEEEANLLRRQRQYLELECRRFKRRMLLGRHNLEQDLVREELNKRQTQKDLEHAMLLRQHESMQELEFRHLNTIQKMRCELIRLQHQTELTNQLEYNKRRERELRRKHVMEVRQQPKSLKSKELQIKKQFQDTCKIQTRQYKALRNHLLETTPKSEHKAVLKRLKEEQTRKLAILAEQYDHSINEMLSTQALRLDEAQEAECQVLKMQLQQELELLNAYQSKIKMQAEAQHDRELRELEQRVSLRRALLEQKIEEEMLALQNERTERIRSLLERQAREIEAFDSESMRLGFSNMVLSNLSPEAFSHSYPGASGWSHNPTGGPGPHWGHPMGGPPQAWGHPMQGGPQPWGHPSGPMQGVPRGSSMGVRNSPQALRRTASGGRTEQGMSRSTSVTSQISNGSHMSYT
T1 sequence (P29597 589-875 limits assumed): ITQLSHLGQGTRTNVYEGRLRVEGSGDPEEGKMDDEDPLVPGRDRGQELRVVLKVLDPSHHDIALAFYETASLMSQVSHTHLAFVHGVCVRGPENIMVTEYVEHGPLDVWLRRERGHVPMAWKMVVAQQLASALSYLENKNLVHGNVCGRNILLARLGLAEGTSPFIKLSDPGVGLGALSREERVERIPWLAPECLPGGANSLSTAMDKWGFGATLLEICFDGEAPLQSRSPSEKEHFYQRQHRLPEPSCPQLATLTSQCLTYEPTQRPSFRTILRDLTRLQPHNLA
Chain of PIM1 (P11309 whole entry): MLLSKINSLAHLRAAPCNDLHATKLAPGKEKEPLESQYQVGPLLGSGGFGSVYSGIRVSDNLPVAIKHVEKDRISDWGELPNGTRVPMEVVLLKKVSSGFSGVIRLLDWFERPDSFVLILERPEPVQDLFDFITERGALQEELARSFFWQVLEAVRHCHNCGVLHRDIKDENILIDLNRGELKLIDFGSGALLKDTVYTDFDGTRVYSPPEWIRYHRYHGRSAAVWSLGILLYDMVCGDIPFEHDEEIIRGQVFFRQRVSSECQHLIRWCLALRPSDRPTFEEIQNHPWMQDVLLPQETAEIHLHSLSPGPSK
Chain of EGFR(L858R) (P00533 whole entry L858R): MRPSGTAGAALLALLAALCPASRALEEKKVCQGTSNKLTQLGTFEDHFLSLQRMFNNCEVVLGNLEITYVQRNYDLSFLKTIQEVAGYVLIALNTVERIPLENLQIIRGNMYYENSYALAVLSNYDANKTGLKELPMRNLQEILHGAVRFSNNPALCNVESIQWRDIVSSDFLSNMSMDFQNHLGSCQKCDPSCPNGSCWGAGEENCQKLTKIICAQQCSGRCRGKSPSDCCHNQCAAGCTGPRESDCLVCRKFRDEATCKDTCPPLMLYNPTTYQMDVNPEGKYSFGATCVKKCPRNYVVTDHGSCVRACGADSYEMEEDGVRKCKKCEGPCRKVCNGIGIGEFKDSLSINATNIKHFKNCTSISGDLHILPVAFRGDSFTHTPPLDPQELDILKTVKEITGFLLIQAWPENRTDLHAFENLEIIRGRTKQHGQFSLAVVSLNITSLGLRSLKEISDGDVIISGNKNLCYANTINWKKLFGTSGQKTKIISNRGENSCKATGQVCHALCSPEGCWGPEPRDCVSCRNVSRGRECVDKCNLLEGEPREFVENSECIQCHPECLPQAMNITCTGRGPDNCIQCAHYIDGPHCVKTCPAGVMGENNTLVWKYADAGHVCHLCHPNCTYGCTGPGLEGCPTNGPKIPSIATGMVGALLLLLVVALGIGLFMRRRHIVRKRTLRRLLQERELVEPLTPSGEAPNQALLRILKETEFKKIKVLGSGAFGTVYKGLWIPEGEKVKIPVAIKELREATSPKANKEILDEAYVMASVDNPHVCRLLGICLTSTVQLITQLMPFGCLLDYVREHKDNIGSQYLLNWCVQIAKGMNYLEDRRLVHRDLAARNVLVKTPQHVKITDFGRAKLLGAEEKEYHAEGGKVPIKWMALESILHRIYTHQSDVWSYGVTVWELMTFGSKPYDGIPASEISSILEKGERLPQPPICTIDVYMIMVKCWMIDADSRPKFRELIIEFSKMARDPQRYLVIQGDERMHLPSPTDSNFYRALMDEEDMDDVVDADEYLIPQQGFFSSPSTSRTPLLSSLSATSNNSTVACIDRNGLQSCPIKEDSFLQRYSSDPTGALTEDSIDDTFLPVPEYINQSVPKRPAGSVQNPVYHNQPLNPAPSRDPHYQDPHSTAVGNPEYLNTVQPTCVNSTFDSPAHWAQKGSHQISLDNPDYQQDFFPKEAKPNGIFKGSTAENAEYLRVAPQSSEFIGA
Chain of EGFR(L747-S752del, P753S) (P00533 with tags, fused parts or gaps DEL747-752/P753S): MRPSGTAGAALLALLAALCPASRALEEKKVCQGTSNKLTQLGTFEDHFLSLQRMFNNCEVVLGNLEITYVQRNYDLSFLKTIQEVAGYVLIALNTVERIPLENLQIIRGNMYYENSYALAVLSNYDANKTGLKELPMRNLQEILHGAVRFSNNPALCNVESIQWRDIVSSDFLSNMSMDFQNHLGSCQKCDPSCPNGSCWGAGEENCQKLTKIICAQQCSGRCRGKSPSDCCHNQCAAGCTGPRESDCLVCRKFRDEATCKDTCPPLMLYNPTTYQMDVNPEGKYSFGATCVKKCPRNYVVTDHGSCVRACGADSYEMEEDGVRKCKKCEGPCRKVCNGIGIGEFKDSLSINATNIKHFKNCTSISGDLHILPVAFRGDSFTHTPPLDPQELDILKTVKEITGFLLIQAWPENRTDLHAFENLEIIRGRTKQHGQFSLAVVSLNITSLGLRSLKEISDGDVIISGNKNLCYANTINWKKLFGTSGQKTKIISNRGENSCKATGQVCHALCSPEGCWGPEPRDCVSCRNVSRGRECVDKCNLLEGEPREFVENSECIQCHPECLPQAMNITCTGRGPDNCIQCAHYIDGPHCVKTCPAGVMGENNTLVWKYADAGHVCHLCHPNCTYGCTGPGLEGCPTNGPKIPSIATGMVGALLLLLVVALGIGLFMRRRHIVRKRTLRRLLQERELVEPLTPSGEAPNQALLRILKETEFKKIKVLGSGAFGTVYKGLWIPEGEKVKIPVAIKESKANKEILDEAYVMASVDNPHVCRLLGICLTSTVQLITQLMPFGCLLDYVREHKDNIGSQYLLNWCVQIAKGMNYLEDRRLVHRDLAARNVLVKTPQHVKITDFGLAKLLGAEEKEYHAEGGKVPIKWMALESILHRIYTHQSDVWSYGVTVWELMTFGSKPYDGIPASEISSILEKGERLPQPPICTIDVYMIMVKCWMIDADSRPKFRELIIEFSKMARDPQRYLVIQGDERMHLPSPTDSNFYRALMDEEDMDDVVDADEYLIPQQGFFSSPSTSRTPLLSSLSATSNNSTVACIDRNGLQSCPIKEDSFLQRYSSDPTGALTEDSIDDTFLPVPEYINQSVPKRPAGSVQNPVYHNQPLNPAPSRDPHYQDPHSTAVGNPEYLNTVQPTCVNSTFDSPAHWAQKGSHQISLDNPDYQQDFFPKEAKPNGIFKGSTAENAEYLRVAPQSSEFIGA

remaining binding at 100 µM [1]: 27% | remaining binding at 100 µM [2]: 68% | remaining binding at 100 µM [3]: 94% | remaining binding at 100 µM (WNK1): 86% | remaining binding at 100 µM (TAOK1): 82% | remaining binding at 100 µM (PIM1): 77% | remaining binding at 100 µM [4]: 82% | remaining binding at 100 µM (PAK6): 98% | remaining binding at 100 µM (CAMK1B): 61% | remaining binding at 100 µM (HIPK2): 76% | remaining binding at 100 µM (EGFR(L858R)): 85%
Structure (SMILES): C=C(C)[C@H]1CC=C(C)C(=O)C1 [S-carvone]
